# In patent US9821024B2, “Immunomodulatory compositions” (Sigmoid Pharma Limited, priority 2010, dated 2017):
# Test system: NFκB
# Conditions: HeLa cells; FIG. 29
smiles,measurement,value
NNc1nncc2ccccc12 [Hydralazine],Concentration of maximal NFκB activation,10 µg/mL
